By IC50 is commonly meant the midpoint of a concentration-inhibition curve. Usually Ki stands for a dissociation constant, usually derived from enzyme kinetics or from competition with a known ligand.

In assay [1] the target is T1, Alpha-2C adrenergic receptor (Homo sapiens, UniProt P18825).
T1 sequence (P18825 whole entry): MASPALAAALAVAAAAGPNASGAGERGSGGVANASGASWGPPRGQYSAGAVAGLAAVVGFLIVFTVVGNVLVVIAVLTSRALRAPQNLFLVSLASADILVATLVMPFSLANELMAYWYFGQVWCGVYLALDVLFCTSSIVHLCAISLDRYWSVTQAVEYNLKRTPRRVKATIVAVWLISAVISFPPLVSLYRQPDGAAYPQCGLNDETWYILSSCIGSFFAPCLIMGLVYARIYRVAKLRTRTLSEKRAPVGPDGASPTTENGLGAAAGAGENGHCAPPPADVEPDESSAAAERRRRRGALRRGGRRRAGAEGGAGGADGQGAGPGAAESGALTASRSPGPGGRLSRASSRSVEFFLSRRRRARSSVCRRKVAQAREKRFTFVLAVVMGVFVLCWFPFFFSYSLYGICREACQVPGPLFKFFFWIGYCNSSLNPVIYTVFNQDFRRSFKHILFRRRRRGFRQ
Kind of assay: DRUGMATRIX: Adrenergic Alpha-2C radioligand binding (ligand: [3H] MK-912). For IC50: call rule not given here. Type of assay: cell membranes, Sf9, Membrane. The conditions noted are these: sf9.

A further assay deals with T2, Endothelin-1 receptor (Homo sapiens, UniProt P25101).
T2 sequence (P25101 whole entry): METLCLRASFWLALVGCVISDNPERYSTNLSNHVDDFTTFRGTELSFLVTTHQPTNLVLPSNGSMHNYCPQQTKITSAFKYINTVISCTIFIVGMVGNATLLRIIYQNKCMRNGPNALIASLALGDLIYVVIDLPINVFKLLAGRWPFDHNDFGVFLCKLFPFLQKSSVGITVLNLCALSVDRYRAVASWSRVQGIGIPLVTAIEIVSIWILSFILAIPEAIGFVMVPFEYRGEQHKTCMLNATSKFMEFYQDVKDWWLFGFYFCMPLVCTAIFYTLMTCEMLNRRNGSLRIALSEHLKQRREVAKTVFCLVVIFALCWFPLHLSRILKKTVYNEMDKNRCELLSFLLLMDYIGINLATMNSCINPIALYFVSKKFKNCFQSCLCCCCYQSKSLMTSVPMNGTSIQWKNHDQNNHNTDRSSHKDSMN
Type of assay: cell membranes, CHO-K1, Membrane. The conditions noted are these: cho-k1.

Assay [2] deals with T3, C-C chemokine receptor type 4 (Homo sapiens, UniProt P51679).
T3 sequence (P51679 whole entry): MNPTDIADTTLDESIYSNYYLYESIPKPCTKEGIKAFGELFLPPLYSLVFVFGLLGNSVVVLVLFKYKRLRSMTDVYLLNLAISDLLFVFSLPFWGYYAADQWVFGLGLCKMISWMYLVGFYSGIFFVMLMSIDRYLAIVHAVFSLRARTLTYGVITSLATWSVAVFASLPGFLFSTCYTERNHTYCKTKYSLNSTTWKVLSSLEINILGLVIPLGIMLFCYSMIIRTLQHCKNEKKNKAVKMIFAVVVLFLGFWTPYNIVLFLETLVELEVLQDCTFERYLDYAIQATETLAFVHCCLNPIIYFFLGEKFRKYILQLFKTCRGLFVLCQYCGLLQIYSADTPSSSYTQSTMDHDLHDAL
Type of assay: cell membranes, Membrane. The conditions noted are these: chem-1.

The next assay deals with Glycine receptor (Rattus norvegicus, UniProt P22771+P24524+P07727+P20781). Type of assay: cell membranes, Wistar, Spinal cord, Membrane.
The target of assay [3] is Matrix metalloproteinase-9 (Homo sapiens, UniProt P14780). Kind of assay: biochemical. Type of assay: cell-based.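 Note: inhibition of isolated MMP-9 enzyme activity toward a synthetic peptide substrate, from the DrugMatrix protease screening panel; in other assays of this panel Not Active means under 50% inhibition at 10 µM.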
Matrix metalloproteinase-9, sequence (P14780 whole entry): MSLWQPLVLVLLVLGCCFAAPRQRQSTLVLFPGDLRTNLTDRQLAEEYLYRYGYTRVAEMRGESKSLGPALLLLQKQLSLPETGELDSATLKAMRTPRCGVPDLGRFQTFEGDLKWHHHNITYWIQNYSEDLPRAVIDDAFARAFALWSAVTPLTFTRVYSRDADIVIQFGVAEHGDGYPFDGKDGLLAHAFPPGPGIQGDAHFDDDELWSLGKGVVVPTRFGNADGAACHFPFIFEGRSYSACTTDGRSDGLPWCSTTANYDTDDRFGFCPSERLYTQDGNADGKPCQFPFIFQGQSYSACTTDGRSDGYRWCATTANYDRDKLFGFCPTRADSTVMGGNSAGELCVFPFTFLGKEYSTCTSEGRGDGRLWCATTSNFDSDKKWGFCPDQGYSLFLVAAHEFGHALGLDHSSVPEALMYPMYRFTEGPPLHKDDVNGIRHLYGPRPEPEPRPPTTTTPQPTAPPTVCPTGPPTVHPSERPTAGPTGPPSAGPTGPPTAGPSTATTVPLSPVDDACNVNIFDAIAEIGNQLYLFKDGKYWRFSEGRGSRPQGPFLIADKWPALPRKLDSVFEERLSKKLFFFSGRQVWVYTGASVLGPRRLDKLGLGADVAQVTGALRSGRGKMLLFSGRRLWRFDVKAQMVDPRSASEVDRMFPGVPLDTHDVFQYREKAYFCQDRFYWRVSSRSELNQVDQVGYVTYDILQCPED
Another assay addresses T4, Neutrophil elastase (Homo sapiens, UniProt P08246).
T4 sequence (P08246 whole entry): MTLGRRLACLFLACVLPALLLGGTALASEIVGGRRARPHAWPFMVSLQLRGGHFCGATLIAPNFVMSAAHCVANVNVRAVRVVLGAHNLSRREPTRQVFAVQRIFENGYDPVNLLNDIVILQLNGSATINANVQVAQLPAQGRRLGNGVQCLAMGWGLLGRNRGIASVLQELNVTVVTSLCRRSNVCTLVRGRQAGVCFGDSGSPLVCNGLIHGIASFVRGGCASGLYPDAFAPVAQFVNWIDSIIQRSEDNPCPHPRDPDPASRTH
Type of assay: tissue-based.

Turning to `Cc1cn([C@H]2C[C@H](N=[N+]=[N-])[C@@H](CO)O2)c(=O)[nH]c1=O` [ZIDOVUDINE], the IC50 result (in assay [1]; on Endothelin-1 receptor; in assay [2]; against Glycine receptor; in assay [3]; at Neutrophil elastase) was “Not Active” in each case.
With STANNOUS FLUORIDE, the concentration for half-maximal inhibition (IC50) entry (in assay [1]; against Endothelin-1 receptor; in assay [2]; on Glycine receptor; in assay [3]; at Neutrophil elastase) was “Not Active” in each case. For the same compound, the Ki entry (in assay [1]; at Endothelin-1 receptor; in assay [2]; on Glycine receptor; in assay [3]; on Neutrophil elastase) was “Not Active” in each case.
Take THIMEROSAL: the half-maximal inhibitory concentration (IC50) in assay [1] (read-out: IC50) was 5040 nM; against Endothelin-1 receptor, “Not Active”; in assay [2] it was “Not Active”; on Glycine receptor, “Not Active”; in assay [3] it was “Not Active”; against Neutrophil elastase, “Not Active”. Also, the Ki is 732 nM in assay [1] (read-out: Ki); “Not Active” on Endothelin-1 receptor; “Not Active” in assay [2]; “Not Active” on Glycine receptor; “Not Active” in assay [3]; “Not Active” at Neutrophil elastase.
